Measured values reported in patent US11066649B2, “Method for inducing human cholangiocyte differentiation” (INSERM (INSTITUT NATIONAL DE LA SANTÉ ET DE LA RECHERCHE …, priority 2014, dated 2021).

Assays:
hESC-Chol [1] = assay: Cellular Ca2+ imaging: intracellular Ca2+ increase after hormonal stimulation; type: cell-based, human; details: hESC-Chol at day 23, Fura2-AM loaded
Experimental: At day 17, differentiating hESC-Chols were plated on glass coverslips coated with type I collagen and differentiated further into cholangiocyte-like cells as described above. At day 23 hESC-Chols were loaded with 3 μM Fura2-AM (Invitrogen, F1201) in BDM medium (37° C. and 5% CO2), for 45 minutes. Cells were then washed twice, and transferred into a perfusion chamber placed on the stage of a Zeiss inverted microscope (Axiovert 35). Intracellular calcium increases were measured after stimulation with somatostatin (Eumedica), ATP (Sigma), or Acetylcholine (Sigma). Calcium imaging was performed as described previously.^41 Fluorescence images were collected by a charge-coupled device camera (Princeton), digitized and integrated in real time by an image processor (Metafluor, Princeton).
To assess the functionality of our hESC-Chol, they analyzed their response to Adenosine triphosphate (ATP), acetylcholine and Somatostatin, known to induce Ca^2+ increase in biliary cells via P2Y1 receptors,^5 M3 muscarinic receptor (AChR M3),^25 Somatostatin receptor type 2 (SSTR2)^26 respectively, as well as type III Inositol 1,4,5-triphosphate (InsP3) receptor (InsP3R), an intracellular Ca^2+ channel, which stimulates release of Ca^2+ from intracellular stores into the cytosol.^27

hESC-Chol [2] = assay: Expression of cholangiocyte markers in hESC-Chol after addition of NaBut; type: cell-based, human; details: addition of NaBut on hESC-Chol (1 μM, days 21 to 23)
Experimental: (§1) At days 10-12 of differentiation, hESC/hiPSC-hepatoblasts were harvested with cell dissociation buffer (0.1 mg/ml EDTA, 0.5 mg/ml BSA in PBS) and seeded onto 12-well collagen I-coated plates (BD Biosciences) with plating medium (William's E/Ham F12 1:1, 10% FBS (PAA Laboratories), 1 mg/ml fraction V fatty acid-free BSA (Sigma), 1 mM L-glutamine) for 4 hours. Cells were then incubated overnight with biliary differentiation medium (BDM) (William's E/Ham F12 1:1, 10^−5 M linoleic acid-Albumin (Sigma L9530), 5.10^−8 M 3,3′,5-Triiodo-L-thyronine (Sigma T2752), 0.2 IU Insulin, 6.10^−4 M Vitamin C (Boyer), […] (Sigma T5391), 1 mM sodium pyruvate (Gibco)). […]
Total RNA was purified with an RNAeasy kit (Qiagen). cDNAs were obtained by using QuantiTect kit (Qiagen 204341) or the High Capacity cDNA Reverse Transcription Kit (Applied Biosystems, Carlsbad, Calif.) according to the manufacturer's instructions. The level of gene expression was measured and analyzed by real-time PCR over 40 cycles using Taqman universal master mix II and Taqman gene expression assays (Applied Biosystems) using an ABI-7000 real-time PCR system and ABI 7000 software. The expression level of CFTR TGR5 (GPBAR-1), SCTR, GGT1, SOX9, AQP1 and JAG was determined in relation to RPL13A, which served as a housekeeping gene. […]

HepaRG-HB = assay: Effect of GH on HepaRG-hepatoblasts; type: cell-based, human; details: addition of GH; data not shown
Experimental: Independent culture experiments were performed 4 times.

[3] = system: hESC-derived differentiating cells; assay: Ki67 staining of differentiating cells after addition of IL-6; type: cell-based, human; details: after addition of IL-6 (10 ng/ml)
Experimental: as §1
Cells were fixed with 4% Paraformaldehyde for 15 minutes at room temperature and permeabilized with 0.5% Triton X-100 for 15 minutes, 3% BSA-PBS for 30 minutes at room temperature or with 0.2% saponin and 5% donkey serum for 45 minutes at room temperature. […] All the photographs were taken with a Leica HMR microscope (Leica Microsystems), inverted DMIRBE microscope (Leica) using a 20×/0.4 N Plan objective (leica) and a CoolSnapES N&B camera (Photometrics) driven by MetaVue software (Molecular devices), SP5 LEICA DMI 6000 CS Microscope (Leica, Germany) and treated with LAS AF 2.6.0 software, or ACT-1 Nikon software or Cellomics ArrayScan VTI HCS Reader.

hepatic progenitors = assay: Effect of periportal mesenchymal factors on commitment of hepatic progenitors toward cholangiocytes; type: cell-based, human; details: addition to hepatic progenitors; data not shown
HepaRG-Chol = details: VEGF-165 20 ng/ml for 2 days
Experimental: HepaRG-HB cultured in the reduced medium were treated for 2 days with IL-6 (10 ng/ml), then for 2 days with sodium taurocholate hydrate (10 nM) and then for 2 days with sodium taurocholate hydrate (10 nM) and sodium butyrate (1.8 μM) to prevent spontaneous differentiation along the hepatocytic lineage. Independent culture experiments were performed 4 times. For proliferation assay, VEGF-165 (20 ng/ml) (Promokine, C-64420) was added on HepaRG-Chol culture for 2 days. Immunostaining pictures were analyzed and quantification was assessed with Cell Health Profiling BioApplication from Cellomics software.

Question: Which “percentage of responsive cells (Ca2+ increase)” value (hESC-Chol [1]) does the source give for `Nc1ncnc2c1ncn2[C@@H]1O[C@H](COP(=O)(O)OP(=O)(O)OP(=O)(O)O)[C@@H](O)[C@H]1O` [ATP, Adenosine triphosphate] here?
Answer: 70%±5

Question: How did the “expression of cholangiocyte markers” value (hESC-Chol [2]) turn out when `CCCC(=O)[O-].[Na+]` [NaBut, Sodium Butyrate] was run?
Answer: did not significantly change

Question: For `CC(=O)OCC[N+](C)(C)C` [acetylcholine], which “percentage of responsive cells (Ca2+ increase)” value (hESC-Chol [1]) is on record?
Answer: 40%±4

Question: Which “proliferation and differentiation of HepaRG-hepatoblasts” value (HepaRG-HB) does the source give for “GH: peptide hormone that stimulates growth and metabolism; Uniprot P01241” here?
Answer: did not improve

Question: With “IL-6: polypeptide also known as B cell-stimulating factor 2; Uniprot P05231” as the molecule, how does the Ki67-positive cycling cells [3] read?
Answer: up to 68%

Question: For “TGFβ1: Transforming growth factor beta 1”, which “cell commitment toward cholangiocytes” value (hepatic progenitors) is on record?
Answer: did not induce significant cell commitment

Question: Which “increase in the number of cells in G2/M phases” value (HepaRG-Chol) does the source give for VEGF here?
Answer: two-fold increase

Question: What about the “cell commitment toward cholangiocytes” value (hepatic progenitors) of the same molecule?
Answer: did not induce significant cell commitment

B1: BMP4: Bone morphogenetic protein 4; Uniprot P12644 (protein, UniProt P12644 293-408, looked up)
Bone morphogenetic protein 4: SPKHHSQRARKKNKNCRRHSLYVDFSDVGWNDWIVAPPGYQAFYCHGDCPFPLADHLNSTNHAIVQTLVNSVNSSIPKACCVPTELSAISMLYLDEYDKVVLKNYQEMVVEGCGCR
Question: With B1 as the molecule, how does the “cell commitment toward cholangiocytes” value (hepatic progenitors) read?
Answer: did not induce significant cell commitment
